Data published in patent US10874749B2, “Gene therapies for neurodegenerative disorders targeting ganglioside biosynthetic pathways” (priority 2015, dated 2020).

Assays:
DA uptake = assay: Striatal uptake of tritiated dopamine (3H-DA) in striatal homogenates; assay type: in vivo, mouse; conditions: 3 minutes
Description: Whole striatal homogenates were exposed to [^3H] DA for 3 minutes in the presence or absence of mazindol to examine the influence of sialidase treatment on DA uptake.
In mouse studies as depicted in FIG. 4, striatal uptake of tritiated dopamine (^3H-DA) was examined. […] Striatal homogenates were incubated with ^3H-DA in the presence (non-specific) or absence (total) of the DA uptake inhibitor mazindol (Maz).

DAergic hES cells = assay: Rescue of DAergic hES cells from MPP+ toxicity (TH immunopositive cell count); assay type: cell-based, human
Description: Human stem cells were differentiated into a dopaminergic (DAergic) phenotype using a well characterized method (Iacovitti et al. 2007 as modified in Cai et al., 2013).
hES cells were plated onto 24 well plates. Cells were pretreated with sialidase, GM1 or standard media for 2 hrs and were then exposed to the mitochondrial toxin MPP^+. Twenty-four hours later, media containing toxin was removed and fresh media containing the appropriate concentration of rescue agent was added. Two days later, cells were fixed, processed for tyrosine hydroxylase (TH) immunocytochemistry and the number of TH immunopositive cells were counted.
FIGS. 3A and 3B depict the protection/rescue of human embryonic stem cells from MPP^+ toxicity. A) The number of tyrosine hydroxylase immunopositive (TH^+) cells was reduced as a result of MPP^+ treatment.
Accordingly, the examples and studies identify that human embryonic stem (hES) cells, when differentiated into dopaminergic neurons, are susceptible to MPP^+ toxicity. However, there are mechanisms that exist that can mitigate the effects of MPP^+ toxicity. Indeed, MPP^+ toxicity in hES cells is mitigated by both GM1 and 0.005 U/mL VCS. Therefore, treatment with a sialidase, such as sialidase Neu3 that increases the amounts of GM1 expression in the striatum and the substantia nigra will provide neuroprotective effects.

PD patients = assay: Randomized, controlled, delayed start clinical study of GM1 in PD patients; assay type: in vivo, human
Text: The more highly expressed gangliosides in the brain are GM1, GD1a, GD1b, GT1b, and GD3. […] Although GM1 administration has promise as a treatment for PD, it is difficult to source, is currently available only as a natural product extracted and purified from animal brains, and has low ability to cross the blood brain barrier.
The mean (±SE) change from baseline in Early-start (randomized to receive GM1 at start of study) and Delayed-start (randomized to receive placebo at start of study) study subjects and in a standard-of-care comparison group (no interventions). The dashed vertical line at week 24 indicates the end of study Phase I. After that, all subjects received GM1. The dashed vertical line at week 120 indicates the end of study Phase II. The horizontal dashed line indicates baseline level. An increase of score indicates symptom worsening; a decrease in score indicates symptom improvement. *=p<0.0001 Early-start vs. Delayed-start; ^=p<0.05 Early-start vs. Delayed-start

YAC128 mice = conditions: cited from earlier work
[1] = cited from earlier work
[2] = hES cells differentiated to dopaminergic phenotype

OC1(c2ccc(Cl)cc2)c2ccccc2C2=NCCN21 (centres unmarked) [Mazindol, mazindol]
total DA uptake (3H-DA) (DA uptake): effectively blocked

GM1
number of tyrosine hydroxylase immunopositive (TH+) cells (DAergic hES cells; 5 and 10 μM doses of MPP+, pretreated 2 hrs): prevented cell loss | protection/rescue from MPP+ toxicity (TH+ cells) (DAergic hES cells; [2]): mitigated | change from baseline in score, early effect (PD patients; Early-start vs Delayed-start, Phase I to week 24): early symptomatic effect | change from baseline in score, later effect (PD patients; Phase II to week 120): later disease modifying effect | clinical benefit and symptom progression (PD patients; extended GM1 use up to 120 weeks): sustained clinical benefit and lower than expected symptom progression | improving motor symptoms vs placebo (PD patients; first 24 weeks of the study): superior to placebo | striatal dopamine levels (YAC128 mice; HD models, intracranial administration): normalization | mHtt phosphorylation (YAC128 mice; YAC128 mice, infusion pump): phosphorylation of mHtt at serine residues 13 and 16 | time to normalization of motor function from start of treatment (YAC128 mice; infusion pump, YAC128 mice symptomatic for motor impairment): ≤ 2 weeks | oral bioavailability [1]: no oral bioavailability | bioavailability/penetrance across the blood brain barrier ([1]; systemically administered): low

VCS: Sialidase V purified from Vibrio cholerae; cleaves a2-8 linkages and terminal a2-3 linkages
protection/rescue from MPP+ toxicity (TH+ cells) (DAergic hES cells; 0.005 U/mL VCS): mitigated | protection/rescue from MPP+ toxicity (TH+ cells) (DAergic hES cells; [2]): protect/rescue cells from MPP^+ toxicity
